Assay results from US10945932B2, “Prebiotic oral care compositions containing carboxylic acids” (COLGATE-PALMOLIVE COMPANY, priority 2013, dated 2021).

Tested on: beneficial oral bacteria and pathogenic oral bacteria
Assay: Metabolic activity, prebiotic effect over the whole panel
Format: cell-based
Conditions: threshold value of 2
Protocol: The extent of metabolic activity of the tested bacteria in the presence of the above-mentioned acids after 24 hours and 48 hours was investigated through a high throughput phenotype microarray system (PM) for microbial cells (Biolog Inc.). Each PM can contain up to 95 different biochemical compounds (e.g. organic acids) that may act as substrates for bacteria as well as one negative control, not containing the substrates. Microarray plates were used in which the different wells of each plate were pre-loaded (by the manufacturer, Biolog Inc.) with different organic acids to be tested. Each bacterial species was tested using a separate microarray plate. Thus, a single bacterial species was tested with a variety of organic acids on each particular plate. The microarrays are based on redox technology, using cell respiration as a universal reporter. […] The observation of this color change indicates which of the substrates improve the metabolic activity and health of the cells.
Each bacterial species was collected from blood agar plates (incubated for 48 hours anaerobically at 37° C.) and transferred to an IF-0 Base inoculation fluid (Biolog Inc.), which is a nutritionally poor medium. […] A 1:5 dilution of this suspension was prepared by mixing 3 mL of the 42% transmittance cell suspension with 15 mL of an inoculation fluid (which inoculation fluid was formed by mixing 11.6 mL sterile water, 62.5 mL IF-0 base inoculation fluid and 0.9 mL of the tetrazolium dye “Biolog Redox Dye mix D”), resulting in a final cell density which was equal to 85% transmittance using a BioRad SmartSpec 3000 Photometer. For each of the acids tested, the microarray plate (obtained from the supplier (Biolog Inc.) with acid already present in the relevant wells in powder form) was directly inoculated with 100 μL/well of this 85% transmittance cell suspension.
All plates were incubated in an anaerobic atmosphere at 37° C. Color changes were measured spectrophotometrically at 492 nm (Thermo Scientific Multiskan Ascent) at 24 hrs and 48 hrs using the same plate at both time points.
The controls were also carried out three times, as above.

| SMILES | prebiotic effect (metabolic activity) (48 hrs) | prebiotic effect (metabolic activity) (24 hrs) |
| --- | --- | --- |
| N[C@@H](CC(=O)O)C(=O)O [L-aspartic acid] | exhibited prebiotic effects |  |
| O=C(O)CCC(=O)O [Succinic acid, succinic acid] | exhibited prebiotic effects | exhibited prebiotic effects |
